Source: US7425640B2, “Substituted 5-carboxyamide pyrazoles and [1,2,4]triazoles as antiviral agents” (priority 2004, dated 2008)

molecular target: HCV RNA-dependent RNA polymerase NS5B (Δ21) (Hepatitis C virus genotype 1b, UniProt P26663); assay: Assay for HCV RNA-dependent RNA polymerase activity (SPA, [3H]-GTP incorporation); format: biochemical; details: read-out: Δ21 Activity (IC50 μM); 50 nM NS5B (Δ21), class symbols
Summary of the method: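 NS5B (Δ21), 50 nM, was incubated 3 h at room temperature with biotinylated oligoG12/polyC template, 5 μM GTP plus [3H]-GTP, in HEPES pH 7.3 with MgCl2 and NaCl. [3H]-GTP incorporation was read by streptavidin SPA. IC50 came from single experiments across 11 two-fold dilutions (0.05–50 μM).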

HCV RNA-dependent RNA polymerase NS5B (Δ21), sequence (P26663 2420-2989, stated change not applied): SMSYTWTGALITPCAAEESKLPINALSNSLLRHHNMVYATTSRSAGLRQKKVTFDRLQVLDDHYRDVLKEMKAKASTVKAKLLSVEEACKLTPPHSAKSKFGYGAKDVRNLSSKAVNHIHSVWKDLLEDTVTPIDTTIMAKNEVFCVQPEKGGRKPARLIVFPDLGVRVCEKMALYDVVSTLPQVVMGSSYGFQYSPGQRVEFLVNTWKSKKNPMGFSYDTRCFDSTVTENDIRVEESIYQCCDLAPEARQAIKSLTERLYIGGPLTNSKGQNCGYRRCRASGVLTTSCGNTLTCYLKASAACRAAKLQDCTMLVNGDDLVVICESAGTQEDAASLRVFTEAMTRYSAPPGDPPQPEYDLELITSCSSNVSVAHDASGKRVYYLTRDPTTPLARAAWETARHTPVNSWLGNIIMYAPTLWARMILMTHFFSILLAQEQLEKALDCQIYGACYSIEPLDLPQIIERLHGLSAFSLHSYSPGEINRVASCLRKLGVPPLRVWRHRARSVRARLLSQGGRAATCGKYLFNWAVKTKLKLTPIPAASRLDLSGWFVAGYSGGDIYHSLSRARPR

| SMILES | IC50 [µM] |
| --- | --- |
| O=C(Cn1nc(C(=O)NC2CC2)cc1C(=O)N[C@H]1CCCC[C@@H]1OCc1ccccc1)N[C@H]1CCCC[C@@H]1OCc1ccccc1 [Compound 122] | 0.1 to 1 |
| C[C@@H](NC(=O)c1cc(C(=O)NC2CCCCC2OCc2ccccc2)n(CC(=O)N[C@H]2CCCC[C@@H]2OCc2ccccc2)n1)c1cccc2ccccc12 (some centres unmarked) [Compound 74] | 0.1 to 1 |
| O=C(Cn1nc(C(=O)O)cc1C(=O)N[C@H]1CCCC[C@@H]1OCc1ccccc1)Nc1ncccc1Oc1ccccc1 [Compound 160] | 0.1 to 1 |
| CCCCNC(=O)c1cc(C(=O)N[C@H]2CCCC[C@@H]2OCc2ccccc2)n(CC(=O)N[C@H]2CCCC[C@@H]2OCc2ccccc2)n1 [Compound 110] | 0.1 to 1 |
| CC(C)C(=O)c1cc(C(=O)N[C@H]2CCCC[C@@H]2OCc2ccccc2)n(CC(=O)N[C@H]2CCCC[C@@H]2OCc2ccccc2)n1 [Compound 63] | 0.1 to 1 |
| O=C(Cn1nc(C(=O)NCCc2ccc(Cl)cc2)cc1C(=O)N[C@H]1CCCC[C@@H]1OCc1ccccc1)N[C@H]1CCCC[C@@H]1OCc1ccccc1 [Compound 129] | 0.1 to 1 |
| O=C(Cn1nc(C(=O)O)nc1C(=O)Nc1ccccc1OCC1CCCCC1)N[C@H]1CCCC[C@@H]1OCc1ccccc1 [Compound 59] | 0.1 to 1 |
| O=C(Cn1nc(C(=O)NCC2CCCCC2)cc1C(=O)N[C@H]1CCCC[C@@H]1OCc1ccccc1)N[C@H]1CCCC[C@@H]1OCc1ccccc1 [Compound 137] | 0.1 to 1 |
| N#Cc1ccc(NNC(=O)c2cc(C(=O)N[C@H]3CCCC[C@@H]3OCc3ccccc3)n(CC(=O)N[C@H]3CCCC[C@@H]3OCc3ccccc3)n2)cc1 [Compound 154] | 0.1 to 1 |
| O=C(Cn1nc(C(=O)N2CCOCC2)cc1C(=O)N[C@H]1CCCC[C@@H]1OCc1ccccc1)N[C@H]1CCCC[C@@H]1OCc1ccccc1 [Compound 150] | 0.1 to 1 |

same assay, conditions: Δ21 Activity (IC50 μM), 50 nM NS5B (Δ21), class symbols

| SMILES | IC50 [µM] |
| --- | --- |
| Cc1cc(C(=O)N[C@H]2CCCC[C@@H]2OCc2ccccc2)n(CC(=O)N[C@H]2CCCC[C@@H]2OCc2ccccc2)n1 [Compound 175] | > 1 |
| O=C(Cn1nc(C(=O)O)cc1C(=O)Nc1ccc(F)cc1OCC1CCCCC1)N[C@H]1CCCC[C@@H]1OCc1ccccc1 [Compound 30] | 0.05 to 0.1 |
| O=Cc1cc(C(=O)N[C@H]2CCCC[C@@H]2OCc2ccccc2)n(CC(=O)N[C@H]2CCCC[C@@H]2OCc2ccccc2)n1 [Compound 189] | > 1 |
| O=C(Cn1nc(NS(=O)(=O)c2ccc(F)cc2)cc1C(=O)N[C@H]1CCCC[C@@H]1OCc1ccccc1)N[C@H]1CCCC[C@@H]1OCc1ccccc1 [Compound 35] | 0.05 to 0.1 |
| CC(C)NC(=O)c1cc(C(=O)N[C@H]2CCCC[C@@H]2OCc2ccccc2)n(CC(=O)N[C@H]2CCCC[C@@H]2OCc2ccccc2)n1 [Compound 163] | > 1 |
| CC(O)(c1ccc(Cl)cc1)c1cc(C(=O)N[C@H]2CCCC[C@@H]2OCc2ccccc2)n(CC(=O)N[C@H]2CCCC[C@@H]2OCc2ccccc2)n1 (some centres unmarked) [Compound 180] | > 1 |
| CCOC(=O)c1cc(C(=O)Nc2cc(C)ccc2OCn2nc(C)cc2C)n(CC(=O)N[C@H]2CCCC[C@@H]2OCc2ccccc2)n1 [Compound 202] | > 1 |
| O=C(Cn1nc(NS(=O)(=O)c2ccc(I)cc2)cc1C(=O)N[C@H]1CCCC[C@@H]1OCc1ccccc1)N[C@H]1CCCC[C@@H]1OCc1ccccc1 [Compound 19] | 0.05 to 0.1 |
| O=C(Cn1nc(NS(=O)(=O)c2ccccc2Br)cc1C(=O)N[C@H]1CCCC[C@@H]1OCc1ccccc1)N[C@H]1CCCC[C@@H]1OCc1ccccc1 [Compound 32] | 0.05 to 0.1 |
| Cc1ccc(OCc2ccccc2)c(NC(=O)c2nc(C(=O)O)nn2CC(=O)N[C@H]2CCCC[C@@H]2OCc2ccccc2)c1 [Compound 24] | 0.05 to 0.1 |
| CCOC(=O)c1cc(C(=O)N[C@H]2CCCC[C@@H]2OCc2ccccc2)n(CC(=O)N(C)[C@H]2CCCC[C@@H]2OCc2ccccc2)n1 [Compound 178] | > 1 |
| Nc1cc(C(=O)N[C@H]2CCCC[C@@H]2OCc2ccccc2)n(CC(=O)NC2CCCC[C@@H]2OCc2ccccc2)n1 (some centres unmarked) [Compound 205] | > 1 |
| O=C(Cn1nc(NS(=O)(=O)c2ccc(Cl)s2)cc1C(=O)N[C@H]1CCCC[C@@H]1OCc1ccccc1)N[C@H]1CCCC[C@@H]1OCc1ccccc1 [Compound 38] | 0.05 to 0.1 |
